Data: the Kinase Knowledgebase extract (Sharma et al. 2016)

biological target: EGFR (human) (UniProt P00533); settings: huvec
Sequence (P00533 whole entry, looked up): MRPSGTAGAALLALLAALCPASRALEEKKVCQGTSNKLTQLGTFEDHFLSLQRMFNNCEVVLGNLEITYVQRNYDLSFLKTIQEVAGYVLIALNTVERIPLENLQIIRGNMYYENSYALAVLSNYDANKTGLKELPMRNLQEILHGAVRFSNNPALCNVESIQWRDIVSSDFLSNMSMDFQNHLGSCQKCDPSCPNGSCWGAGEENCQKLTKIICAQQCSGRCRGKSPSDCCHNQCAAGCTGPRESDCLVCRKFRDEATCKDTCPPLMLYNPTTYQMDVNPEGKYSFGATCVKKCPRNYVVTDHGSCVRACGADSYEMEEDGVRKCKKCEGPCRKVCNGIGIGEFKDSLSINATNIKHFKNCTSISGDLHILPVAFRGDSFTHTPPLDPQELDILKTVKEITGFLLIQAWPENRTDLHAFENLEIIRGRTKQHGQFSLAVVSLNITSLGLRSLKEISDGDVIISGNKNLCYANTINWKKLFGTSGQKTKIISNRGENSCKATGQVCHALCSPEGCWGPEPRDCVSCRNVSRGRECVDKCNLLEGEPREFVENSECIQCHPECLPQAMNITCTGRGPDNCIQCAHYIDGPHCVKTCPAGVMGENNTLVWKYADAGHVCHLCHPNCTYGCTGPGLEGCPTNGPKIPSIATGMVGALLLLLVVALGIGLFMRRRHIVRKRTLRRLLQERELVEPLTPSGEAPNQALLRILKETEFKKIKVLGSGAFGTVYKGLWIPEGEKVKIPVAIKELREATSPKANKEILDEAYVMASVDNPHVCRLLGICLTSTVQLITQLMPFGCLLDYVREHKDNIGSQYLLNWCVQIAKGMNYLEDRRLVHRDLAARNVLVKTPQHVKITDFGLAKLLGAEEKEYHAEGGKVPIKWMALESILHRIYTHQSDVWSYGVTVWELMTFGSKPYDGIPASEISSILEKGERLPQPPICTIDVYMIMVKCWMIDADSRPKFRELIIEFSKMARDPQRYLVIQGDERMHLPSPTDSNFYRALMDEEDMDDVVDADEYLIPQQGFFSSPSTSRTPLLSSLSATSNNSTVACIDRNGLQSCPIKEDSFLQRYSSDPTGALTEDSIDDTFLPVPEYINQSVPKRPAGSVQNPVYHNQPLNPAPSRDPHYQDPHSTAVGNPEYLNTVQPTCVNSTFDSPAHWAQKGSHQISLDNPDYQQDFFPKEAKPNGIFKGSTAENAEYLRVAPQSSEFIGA

Row | SMILES | IC50
1 | COc1cc2c(Nc3ccc(Cl)cc3F)ncnc2cc1OCCC1CCN(C)CC1 | 200 nM
2 | COc1cc2c(Nc3ccc(C#N)cc3F)ncnc2cc1OC/C=C/CN1CCCC1 | 1400 nM
3 | COc1cc2c(Nc3ccc(Cl)cc3F)ncnc2cc1OC[C@@H]1CCCN(C)C1 | 150 nM
4 | COc1cc2c(Nc3c(F)cc(Cl)cc3F)ncnc2cc1OCC1CCNCC1 | 600 nM
5 | COc1cc2c(Nc3ccc(C)cc3F)ncnc2cc1OCC1CCNCC1 | 450 nM
6 | COc1cc2c(Nc3c(F)cc(Br)cc3F)ncnc2cc1OCC1CCNCC1 | 400 nM
7 | COc1cc2c(Nc3cc(O)c(C)cc3F)ncnc2cc1OCC1CCN(C)CC1 | 200 nM
8 | COc1cc2c(Nc3ccc(C)cc3F)ncnc2cc1OCC1CCN(C)CC1 | 400 nM
9 | COc1cc2c(Nc3ccc(Cl)cc3F)ncnc2cc1OCCCN1CCN(C)CC1 | 100 nM
10 | COc1cc2c(Nc3c(F)cc(Br)cc3F)ncnc2cc1OCC1CCN(C)CC1 | 400 nM

The remaining compounds from weak to strong by IC50, led by results:

Row | IC50 | SMILES
11 | 100 nM | COc1cc2c(Nc3ccc(Br)cc3F)ncnc2cc1OCC1CCNCC1
12 | 100 nM | COc1cc2c(Nc3ccc(Cl)cc3F)ncnc2cc1OCC1CCNCC1
13 | 90 nM | COc1cc2c(Nc3ccc(Br)cc3F)ncnc2cc1OC/C=C/CN1CCCC1
14 | 90 nM | COc1cc2c(Nc3ccc(Br)cc3F)ncnc2cc1OCCCN1CCN(C)CC1
15 | 80 nM | COc1cc2c(Nc3ccc(Cl)cc3F)ncnc2cc1OC/C=C/CN1CCCC1
16 | 70 nM | COc1cc2c(Nc3cc(O)c(Cl)cc3F)ncnc2cc1OCC1CCN(C)CC1
